Counter-ions that a name gives are not always drawn.
Legend:
Type in all cases: biochemical
[1] = molecular target: T1, recombinant human DAO (diamine oxidase) (Homo sapiens, UniProt P19801); assay: Activity on recombinant human DAO, method similar to VAP-1 assay, 1 mM putrescine substrate; settings: read-out: Inhibitory Activity (IC50, nM) DAO
T1 construct: purchased R&D systems
T1 sequence (P19801 20-751): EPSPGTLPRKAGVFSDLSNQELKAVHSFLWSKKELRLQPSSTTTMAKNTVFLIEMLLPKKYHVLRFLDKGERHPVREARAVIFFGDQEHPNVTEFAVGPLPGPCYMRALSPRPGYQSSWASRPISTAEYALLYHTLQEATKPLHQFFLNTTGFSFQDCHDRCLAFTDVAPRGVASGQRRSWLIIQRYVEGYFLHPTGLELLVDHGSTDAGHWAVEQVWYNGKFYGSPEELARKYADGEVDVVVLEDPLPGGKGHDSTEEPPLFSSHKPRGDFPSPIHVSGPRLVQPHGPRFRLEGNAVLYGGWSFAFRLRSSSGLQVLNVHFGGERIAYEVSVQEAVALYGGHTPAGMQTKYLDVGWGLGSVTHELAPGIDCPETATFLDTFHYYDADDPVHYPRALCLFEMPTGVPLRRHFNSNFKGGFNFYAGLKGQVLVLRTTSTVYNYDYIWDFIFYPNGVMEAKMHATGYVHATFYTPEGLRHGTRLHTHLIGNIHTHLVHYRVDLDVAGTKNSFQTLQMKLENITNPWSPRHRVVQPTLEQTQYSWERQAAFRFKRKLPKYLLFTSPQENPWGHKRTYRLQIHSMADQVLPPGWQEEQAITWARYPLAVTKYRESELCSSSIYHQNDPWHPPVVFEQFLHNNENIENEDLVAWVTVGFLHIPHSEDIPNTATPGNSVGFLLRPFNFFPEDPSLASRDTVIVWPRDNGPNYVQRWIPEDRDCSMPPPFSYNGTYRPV
Procedure: (§1) The compounds according to the present technology were evaluated in terms of activity on recombinant human VAP-1 (R&D systems) by measuring the level of hydrogen peroxide in horseradish peroxidase (HRP)-coupled reaction using Amplex Red Hydrogen Peroxide Assay Kit (Molecular Probes, Invitrogen, USA). The experiment was carried out at room temperature using benzylamine as a substrate. In the HRP-coupled reaction, hydrogen peroxide oxidation of 10-acetyl-3,7-dihydroxyphenoxazine (Amplex Red reagent) produces resorufin, which is a highly fluorescent compound. Briefly, the test compound was dissolved in dimethyl sulfoxide (DMSO) at a concentration of 20 mM. The dose-response assessment was made by 1:3 serial dilution in DMSO, thereby creating a 8 point curve. The concentration of the upper part was controlled according to the efficacy of the compounds, followed by dilution with a reaction buffer solution to obtain a final DMSO concentration of less than 1%. To each well of a 96 black well plate, human VAP-1 purified in 50 mM sodium phosphate buffer solution (pH7.4) was added. The test compounds dissolved in DMSO were incubated with the human VAP-1 enzymes at 37° C. for 30 minutes. After 30-minute incubation, each well was added with a reaction mixture containing 200 uM Amplex Red reagent prepared from 50 mM sodium phosphate buffer solution (pH 7.4), 1 mM benzylamine, and 1 U/mL HRP. Fluorescence intensity was measured at several time points during 1-2 hours using a microplate reader (Flexstation3, Molecular Devices) under the wavelength condition exciting at 544 nm and reading the emission at 590 nm. The inhibitory effect of the compounds was measured as a decrease (%) in the signal rate as compared to the control group without any inhibitor (only diluted DMSO). Data was fixed to a logistic model with four variables and IC50 value was calculated using GraphPad Prism program.
(§2) In addition, the compounds according to the present technology were evaluated in terms of activity on a recombinant human MAO-A (monoamine oxidase-A, Sigma-Aldrich) and a recombinant human MAO-B(monoamine oxidase-B, Sigma-Aldrich) by using as substrates, 0.5 mM tyramine and 1 mM benzylamine, respectively, with a method similar to the activity evaluation method for recombinant human VAP-1. The compounds according to the present technology were also evaluated in terms of activity on a recombinant human DAO (diamine oxidase, R&D systems) by using as a substrate 1 mM putrescine with a method similar to the activity evaluation method for recombinant human VAP-1.

[2] = molecular target: T2, recombinant human MAO-A (monoamine oxidase-A) (Homo sapiens, UniProt P21397); assay: Activity on recombinant human MAO-A, method similar to VAP-1 assay, 0.5 mM tyramine substrate; settings: read-out: Inhibitory Activity (IC50, nM) MAO-A
T2 construct: purchased Sigma-Aldrich
T2 sequence (P21397 1-527): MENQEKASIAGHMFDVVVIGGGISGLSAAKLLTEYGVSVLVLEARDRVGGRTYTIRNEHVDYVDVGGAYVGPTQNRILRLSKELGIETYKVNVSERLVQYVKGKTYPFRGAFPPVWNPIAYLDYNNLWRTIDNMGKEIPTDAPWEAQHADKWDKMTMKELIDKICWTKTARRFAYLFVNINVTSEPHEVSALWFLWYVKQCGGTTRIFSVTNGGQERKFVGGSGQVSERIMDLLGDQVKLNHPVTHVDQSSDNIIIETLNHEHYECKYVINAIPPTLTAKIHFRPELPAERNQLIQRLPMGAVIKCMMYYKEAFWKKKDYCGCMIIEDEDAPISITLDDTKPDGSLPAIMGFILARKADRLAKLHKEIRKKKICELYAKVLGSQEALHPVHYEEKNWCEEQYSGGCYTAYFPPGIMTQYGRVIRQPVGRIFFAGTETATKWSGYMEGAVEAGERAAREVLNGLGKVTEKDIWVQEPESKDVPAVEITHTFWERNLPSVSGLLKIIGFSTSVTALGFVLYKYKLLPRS
Procedure: as §1, §2

recombinant human VAP-1 = molecular target: T3, recombinant human VAP-1 (Homo sapiens, UniProt Q16853); assay: Activity on recombinant human VAP-1, HRP-coupled Amplex Red hydrogen peroxide assay, benzylamine substrate; settings: 30 min incubation at 37° C., 1 mM benzylamine, read-out: Inhibitory Activity (IC50, nM) human VAP-1
T3 construct: purchased R&D systems
T3 sequence (Q16853 1-763): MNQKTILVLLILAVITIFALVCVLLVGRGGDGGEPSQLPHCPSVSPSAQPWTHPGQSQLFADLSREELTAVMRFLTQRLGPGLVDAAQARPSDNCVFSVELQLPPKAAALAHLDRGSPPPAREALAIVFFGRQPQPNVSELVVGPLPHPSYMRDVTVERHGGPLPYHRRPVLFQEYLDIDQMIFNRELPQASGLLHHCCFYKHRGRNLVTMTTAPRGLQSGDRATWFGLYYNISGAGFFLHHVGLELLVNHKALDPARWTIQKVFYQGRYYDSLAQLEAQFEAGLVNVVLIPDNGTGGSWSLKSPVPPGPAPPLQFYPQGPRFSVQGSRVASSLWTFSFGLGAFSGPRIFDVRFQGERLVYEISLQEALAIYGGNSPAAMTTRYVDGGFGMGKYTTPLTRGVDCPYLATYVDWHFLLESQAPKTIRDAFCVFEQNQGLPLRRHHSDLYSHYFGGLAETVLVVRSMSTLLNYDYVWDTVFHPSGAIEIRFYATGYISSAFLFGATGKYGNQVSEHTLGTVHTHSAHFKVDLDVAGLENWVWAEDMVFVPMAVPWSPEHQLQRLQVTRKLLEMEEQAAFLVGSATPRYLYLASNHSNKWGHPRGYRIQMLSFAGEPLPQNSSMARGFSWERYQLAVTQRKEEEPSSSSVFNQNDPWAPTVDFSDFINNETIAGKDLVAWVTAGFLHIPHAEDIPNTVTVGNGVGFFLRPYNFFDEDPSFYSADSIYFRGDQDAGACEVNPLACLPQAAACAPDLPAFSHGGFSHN
Procedure: as §1

[3] = molecular target: T4, recombinant human MAO-B (monoamine oxidase-B) (Homo sapiens, UniProt P27338); assay: Activity on recombinant human MAO-B, method similar to VAP-1 assay, 1 mM benzylamine substrate; settings: read-out: Inhibitory Activity (IC50, nM) MAO-B
T4 construct: purchased Sigma-Aldrich
T4 sequence (P27338 1-520): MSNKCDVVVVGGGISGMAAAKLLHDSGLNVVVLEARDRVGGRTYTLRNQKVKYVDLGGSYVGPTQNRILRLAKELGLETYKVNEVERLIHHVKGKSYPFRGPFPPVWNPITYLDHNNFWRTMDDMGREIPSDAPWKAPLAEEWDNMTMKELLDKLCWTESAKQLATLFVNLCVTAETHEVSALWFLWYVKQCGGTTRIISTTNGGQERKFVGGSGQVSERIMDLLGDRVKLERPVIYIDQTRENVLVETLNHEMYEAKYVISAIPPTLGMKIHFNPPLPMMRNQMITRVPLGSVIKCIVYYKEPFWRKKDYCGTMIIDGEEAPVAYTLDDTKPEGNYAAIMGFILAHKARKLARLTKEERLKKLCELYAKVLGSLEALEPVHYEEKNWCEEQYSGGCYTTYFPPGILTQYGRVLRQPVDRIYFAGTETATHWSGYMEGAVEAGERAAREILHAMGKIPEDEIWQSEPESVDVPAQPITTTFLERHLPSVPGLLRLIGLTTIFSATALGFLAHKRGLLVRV
Procedure: as §1, §2

Structure (SMILES) | IC50 [1] | IC50 [2] | IC50 (recombinant human VAP-1) | IC50 [3]
CS(=O)(=O)c1ccc(-c2ccc3nn(C/C(=C/F)CN)c(=O)n3c2)cc1 [Example 3, 2-[(2E)-2-(aminomethyl)-3-fluoroprop-2-en-1-yl]-6-[4-(methylsulfonyl)phenyl][1,2,4]triazolo[4,3-a]pyridin-3(2H)-one trifluoroacetate] | < 100 nM | > 100000 nM | 3.6 nM | 231 nM
NCC(Cn1nc2cc(C#Cc3cnc4c(c3)NCCO4)ccn2c1=O)=C(F)F [Example 60, 2-[2-(aminomethyl)-3,3-difluoro-allyl]-7-[2-(2,3-dihydro-1H-pyrido[2,3-b][1,4]oxazin-7-yl)ethynyl]-[1,2,4]triazolo[4,3-a]pyridin-3-one ditrifluoroacetate] | 220 nM | > 100000 nM | 0.4 nM | > 100000 nM
NC/C(=C\F)Cn1nc2ccc(-c3ccc4c(c3)OCCO4)cn2c1=O [Example 13, 2-[(2E)-2-(aminomethyl)-3-fluoroprop-2-en-1-yl]-6-(2,3-dihydro-1,4-benzodioxin-6-yl)[1,2,4]triazolo[4,3-a]pyridin-3(2H)-one trifluoroacetate] | < 100 nM | > 100000 nM | 4.8 nM | 15 nM
CN1C(=O)CCc2cc(-c3ccn4c(=O)n(CC(CN)=C(F)F)nc4c3)ccc21 [Example 54, 6-[2-[2-(aminomethyl)-3,3-difluoro-allyl]-3-oxo-[1,2,4]triazolo[4,3-a]pyridin-7-yl]-1-methyl-3,4-dihydroquinolin-2-one trifluoroacetate] | 22 nM | > 100000 nM | 0.1 nM | 170 nM
CCn1cc(-c2ccn3c(=O)n(CC(CN)=C(F)F)nc3c2)cn1 [Example 55, 2-[2-(aminomethyl)-3,3-difluoro-allyl]-7-(1-ethylpyrazol-4-yl)-[1,2,4]triazolo[4,3-a]pyridin-3-one trifluoroacetate] | 1800 nM | > 100000 nM | 0.4 nM | 5100 nM
NC/C(=C\F)Cn1nc2ccc(-c3ccc(N4CCOCC4)nc3)cn2c1=O [Example 10, 2-[(2E)-2-(aminomethyl)-3-fluoroprop-2-en-1-yl]-6-[6-(morpholin-4-yl)pyridin-3-yl][1,2,4]triazolo[4,3-a]pyridin-3(2H)-one trifluoroacetate] | < 100 nM | > 100000 nM | 6.6 nM | 64 nM
NC/C(=C\F)Cn1nc2ccc(-c3ccc4sc(N)nc4c3)cn2c1=O [Example 14, 6-(2-amino-1,3-benzothiazol-5-yl)-2-[(2E)-2-(aminomethyl)-3-fluoroprop-2-en-1-yl][1,2,4]triazolo[4,3-a]pyridin-3(2H)-one trifluoroacetate] | < 100 nM | > 100000 nM | 6.2 nM | 69 nM

The remaining compounds from weak to strong by IC50 [1], led by results:

IC50 [1] | IC50 [2] | IC50 (recombinant human VAP-1) | IC50 [3] | Structure (SMILES)
3 nM | > 100000 nM | 0.2 nM | 100 nM | NCC(Cn1nc2cc(-c3ccc(C(F)(F)F)nc3)ccn2c1=O)=C(F)F [Example 50, 2-[2-(aminomethyl)-3,3-difluoro-allyl]-7-[6-(trifluoromethyl)-3-pyridyl]-[1,2,4]triazolo[4,3-a]pyridin-3-one trifluoroacetate]
0.3 nM | > 100000 nM | 0.6 nM | 290 nM | Cc1cc(-c2ccc3nn(C/C(=C/F)CN)c(=O)n3c2)cc2c1NC(=O)CC2 [Example 17, 6-[2-[(2E)-2-(aminomethyl)-3-fluoroprop-2-en-1-yl]-3-oxo-2,3-dihydro[1,2,4]triazolo[4,3-a]pyridin-6-yl]-8-methyl-3,4-dihydroquinolin-2(1H)-one hydrochloride]
0.2 nM | > 100000 nM | 12 nM | 37 nM | NC/C(=C\F)Cn1nc2ccc(-c3ccc(C(F)(F)F)nc3)cn2c1=O [Example 9, 2-[(2E)-2-(aminomethyl)-3-fluoroprop-2-en-1-yl]-6-[6-(trifluoromethyl)pyridin-3-yl][1,2,4]triazolo[4,3-a]pyridin-3(2H)-one hydrochloride]
0.2 nM | 96000 nM | 0.1 nM | 1100 nM | NC/C(=C\F)Cn1nc2cc(-c3ccc4nn[nH]c4c3)ccn2c1=O [Example 39, 2-[(2E)-2-(aminomethyl)-3-fluoroprop-2-en-1-yl]-7-(1H-benzotriazol-6-yl)[1,2,4]triazolo[4,3-a]pyridin-3(2H)-one hydrochloride]

Source: patent publication US11091479B2, “Triazolopyridin-3-ones or their salts and pharmaceutical compositions comprising the same” (YUHAN CORPORATION, priority 2018, dated 2021)
